Measured values: article PMC10111413 (ACS Infectious Diseases, 2023)
≈ marks a conversion by molar mass, not a printed value. Where a SMILES comes first, the peptide text is derived from it. Bridges are numbered along the chain shown (N, C = ends). [ ]: non-standard residue; d: D form. The star is where a group is joined. ξ: configuration not given here. Hexanoyl(4ξ-Me) = CCC(C)CCC(=O)*; dOrn = NCCC[C@@H](N)C(=O)O; Orn = NCCC[C@H](N)C(=O)O; Dap = NC[C@H](N)C(=O)O

Key:
[1] = test system: E. coli ATCC 25922 mcr-1; format: cell-based; details: CLSI microbroth dilution, Mueller Hinton broth, 18 h at 37 °C, visual read-out, three technical replicates; mcr-1 colistin resistance plasmid
Method: (§1) The antibacterial activities of relacidine A (3a) and B (4a), along with diastereomers 3b and 4b–d and relacidamide (5), were assessed using a standard microbroth dilution assay to establish minimum inhibitory concentration (MIC) values against a panel of Gram-negative bacteria (Table 1). The MIC values measured for synthetic relacidine A (3a) and B (4a) agree well with those previously published.[9] […] Relacidine A (3a) and B (4a), as well as relacidamide (5), were further tested against a panel of colistin-resistant A. baumannii clinical isolates, which confirmed their ability to prevent the growth of colistin-resistant isolates (Supplemental Table S2). […] Also of interest was the finding that while relacidine B (4a) induced <1% hemolysis, a substitution of either the L-Ala or L-Ser to D-Ala or D-Ser increased hemolytic activity to 8–12%. […] The greater hydrolytic stability of relacidine B would appear to be attributable to the increased steric bulk of the Ala side chain next to the ester linkage (compared with the methylene of Gly in relacidine A), which may hinder the nucleophilic attack of water at the ester carbonyl.
(§2) Colistin sulfate was purchased from Activate Scientific. Kanamycin monosulfate was purchased from MP Biomedicals. E. coli ATCC 25922, S. aureus USA300 (ATCC BAA1717), and K. pneumoniae ATCC 13883 belong to the American Type Culture Collection (ATCC). P. aeruginosa PAO1 was kindly provided by L.H.C. Quarles Van Ufford of Utrecht University, Utrecht, The Netherlands. E. coli ATCC 25922 MCR-1 was transfected in-house using the pGDP2-MCR1 plasmid kindly provided by Yong-Xin Li of The University of Hong Kong, Hong Kong, China. Sheep blood agar plates (ref. PB5039A) were purchased from Thermo Scientific. Tryptic soy broth (ref. 02-200-500) was purchased from Scharlab. Mueller-Hinton broth (ref. X927.1) was purchased from Carl Roth. Polypropylene 96-wells plates (ref. 3879) were purchased from Corning.
(§3) MICs were determined according to Clinical and Standards Laboratory Institute (CLSI) guidelines. Blood agar plates were inoculated with glycerol stocks of E. coli ATCC 25922, K. pneumoniae ATCC 13883, P. aeruginosa PAO1, and S. aureus USA300. The inoculated agar plates were then incubated for 16 h at 37 °C. Individually grown colonies were subsequently used to inoculate 5 mL aliquots of tryptic soy broth (TSB) that were then incubated at 37 °C with shaking at 220 rpm. E. coli 25922 MCR-1 glycerol stock was used to inoculate 5 mL of TSB supplemented with kanamycin that was then incubated for 16 h at 37 °C with shaking at 220 rpm. The next day, the culture was diluted 100-fold in TSB supplemented with kanamycin and incubated at 37 °C with shaking at 220 rpm. In parallel, the lipopeptide antibiotic DMSO stocks to be assessed were serially diluted with Mueller Hinton broth (MHB) in polypropylene 96-well plates (50 μL in each well). Colistin sulfate stocks were dissolved in water before being diluted with MHB. Aliquots of the inoculated TSB were incubated until an OD600 of around 0.5 was reached. The bacterial suspensions were then diluted with MHB (2 × 10^5 cfu mL^–1) and added to the microplates containing the test compounds (50 μL to each well). The well plates were sealed with an adhesive membrane, and after 18 h of incubation at 37 °C with shaking at 600 rpm, the wells were visually inspected for bacterial growth. MIC values reported are based on three technical replicates and defined as the lowest concentration of the compound that prevented visible growth of bacteria.

[2] = test system: E. coli ATCC 25922; format: cell-based; details: ATCC 25922, 18 h
Method: as §1, §2, §3

[3] = test system: K. pneumoniae ATCC 13883; format: cell-based; details: ATCC 13883, 18 h
Method: as §1, §2, §3

[4] = test system: P. aeruginosa PAO1; format: cell-based; details: PAO1, 18 h
Method: as §1, §2, §3

[5] = test system: S. aureus USA300; format: cell-based; details: USA300, 18 h
Method: as §1, §2, §3

[6] = test system: A. baumannii ATCC 17978; format: cell-based; details: ATCC 17978, 18 h
Method: (§4) VIII. Antimicrobial testing
(§5) Table S2. Minimum inhibitory concentrations (MICs) determined against panel of previously characterized colistin-resistant A. baumannii clinical isolates5
(§6) Strain Relacidine A (3a) Relacidine B (4a) Relacidamide (5) Colistin […]
(§7) aMIC values given in µg/ml.
(§8) All minimum inhibitory concentrations were determined according to Clinical and Standards Laboratory Institute (CLSI) guidelines. Blood agar plates were inoculated from glycerol stocks of the different A. baumannii strains used and then incubated for 16 h at 37 °C . Individually grown colonies were subsequently used to inoculate 5 mL aliquots of TSB that were then incubated at 37 °C. In parallel, the lipopeptide antibiotics DMSO stocks to be assessed were serially diluted with cation-adjusted MHB in polypropylene 96-well plates (50 µL in each well). Colistin sulfate stocks were dissolved in water before being diluted with cation-adjusted MHB. The A. baumannii inoculated TSB aliquots were incubated until an OD600 of around 0.5 was reached. The bacterial suspensions were then diluted with cation-adjusted MHB (2 x 10^5 CFU mL-1) and added to the microplates containing the test compounds (50 µL to each well). The well-plates were sealed with an adhesive membrane and after 18 h of incubation at 37 °C visually inspected for bacterial growth. MIC values reported are based on three technical replicates and defined as the lowest concentration of the compound that prevented visible

[7] = test system: A. baumannii BV172; format: cell-based; details: BV172, 18 h
Method: as §4, §5, §6, §7, §8

[8] = test system: A. baumannii BV173; format: cell-based; details: BV173, 18 h
Method: as §4, §5, §6, §7, §8

[9] = test system: A. baumannii BV94; format: cell-based; details: BV94, 18 h
Method: as §4, §5, §6, §7, §8

[10] = test system: A. baumannii BV95; format: cell-based; details: BV95, 18 h
Method: as §4, §5, §6, §7, §8

[11] = test system: A. baumannii HUMC1; format: cell-based; details: HUMC1, 18 h
Method: as §4, §5, §6, §7, §8

[12] = test system: A. baumannii LAC-4; format: cell-based; details: LAC-4, 18 h
Method: as §4, §5, §6, §7, §8

[13] = test system: A. baumannii NCTC 13304; format: cell-based; details: NCTC 13304, 18 h
Method: as §4, §5, §6, §7, §8

[14] = test system: A. baumannii NCTC 13420; format: cell-based; details: NCTC 13420, 18 h
Method: as §4, §5, §6, §7, §8

[15] = test system: G. mellonella larvae; details: in vivo
Source text: Given the promising in vitro activity of relacidamide (5), along with its high serum stability, low hemolytic activity, and ease of synthesis, we further evaluated its efficacy in an established in vivo infection model using G. mellonella larvae. The G. mellonella infection model has gained popularity in recent years and provides a convenient method to assess the in vivo effectiveness and toxicity of novel antibiotics.[15],[16] […] The larvae were first injected with either vehicle (PBS) or A. baumannii BV94 suspension in the right second proleg. The moth larvae were then injected in the left second proleg with either PBS (untreated), colistin at 100 mg/kg or 200 mg/kg, or relacidamide (5) at 100 mg/kg or 200 mg/kg. The G. mellonella larvae were then incubated for 72 h, and their survival was assessed twice per day. Relacidamide (5) induced 50% survival after 72 h at 100 mg/kg and 70% survival at 200 mg/kg, whereas none of the larvae treated with colistin survived, and only 10% of the untreated larvae survived after 72 h.

SMILES: CCC(C)CCC(=O)N[C@H](CO)C(=O)N[C@H](Cc1ccc(O)cc1)C(=O)N[C@H](Cc1c[nH]c2ccccc12)C(=O)N[C@H](CCCN)C(=O)N[C@@H](CCCN)C(=O)NCC(=O)N[C@H](CCCN)C(=O)N[C@@H](Cc1c[nH]c2ccccc12)C(=O)N[C@H]1CNC(=O)CNC(=O)[C@H](CO)NC(=O)CNC(=O)[C@H]([C@@H](C)CC)NC1=O (stereo partly drawn) [compound 5, Relacidamide] ({Hexanoyl(4ξ-Me)}-[dS][dY][dW][dOrn][Orn]G[dOrn]W[Dap]IGSG; lactam 9-C)
- MIC E. coli ATCC 25922 mcr-1 [1]: 2 to 4 µg/mL
- MIC E. coli ATCC 25922 [2]: 2 to 4 µg/mL
- MIC K. pneumoniae ATCC 13883 [3]: 4 µg/mL (≈ 2.61 µM)
- MIC P. aeruginosa PAO1 [4]: 8 µg/mL (≈ 5.21 µM)
- MIC S. aureus USA300 [5]: >32 µg/mL
- MIC A. baumannii ATCC 17978 [6]: 4 µg/mL (≈ 2.61 µM)
- MIC A. baumannii BV172 [7]: 16 µg/mL (≈ 10.4 µM)
- MIC A. baumannii BV173 [8]: 16 µg/mL (≈ 10.4 µM)
- MIC A. baumannii BV94 [9]: 8 µg/mL (≈ 5.21 µM)
- MIC A. baumannii BV95 [10]: 8 µg/mL (≈ 5.21 µM)
- MIC A. baumannii HUMC1 [11]: 8 µg/mL (≈ 5.21 µM)
- MIC A. baumannii LAC-4 [12]: 8 µg/mL (≈ 5.21 µM)
- MIC A. baumannii NCTC 13304 [13]: 4 µg/mL (≈ 2.61 µM)
- MIC A. baumannii NCTC 13420 [14]: 16 µg/mL (≈ 10.4 µM)
- tolerability in G. mellonella larvae [15]: well tolerated up to the highest tested dose
